In patent publication US4609645A, “Macrolide antibiotics, pharmaceutical compositions and methods of use” (priority 1983, dated 1986):
In brackets after ≈: the same amount, converted by molar mass. Read-outs that look alike come from different tables or passages of the source.

Tests used:
E. coli N-33 = experiment: Minimum inhibitory concentration (MIC), antimicrobial activity; format: cell-based; conditions: Escherichia coli
Description: (§1) The antimicrobial activity of the PTL-448 derivatives of the invention is illustrated in Table 3, which is a summary of the results of a number of tests carried out to determine minimum inhibitory concentrations (MIC) of the derivatives against a number of typical bacteria. Comparative results for Spiramycin I (SPM I) and III (SPM III) are also given. Tests were carried out using heart infusion agar media (pH 7 at 37° C., after about 20 hours).

[1] = test system: Salmonella typhimurium KB 20; experiment: as above; format: cell-based; conditions: Salmonella enterica
Description: as §1

[2] = test system: Bacillus subtilis PCI 219; experiment: as above; format: cell-based
Description: as §1

[3] = test system: Streptococcus pneumoniae III KB 165; experiment: as above; format: cell-based
Description: as §1

[4] = test system: Klebsiella pneumoniae ATCC 10031; experiment: as above; format: cell-based
Description: as §1

B. cereus IFO 3001 = experiment: as above; format: cell-based; conditions: Bacillus cereus
Description: as §1

S. aureus FDA 209P = experiment: as above; format: cell-based; conditions: Staphylococcus aureus, FDA209P
Description: as §1

[5] = test system: Micrococcus luteus ATCC 9341; experiment: as above; format: cell-based
Description: as §1

[6] = test system: Staphylococcus aureus ATCC 6538P; experiment: as above; format: cell-based; conditions: ATCC6538P
Description: as §1

Solubility = format: physicochemical
[7] = test system: Mycoplasma gallisepticum KP-13; experiment: Activity against Mycoplasma, paper disk inhibition zone; format: cell-based; conditions: paper disk 8 mm in diameter, 37° C., about 48 hours
Description: (§2) In addition, the activity of the PTL-448 derivatives against Mycoplasma was examined by conventional methods (paper disk 8 mm in diameter, 37° C., about 48 hours).

[8] = test system: Acholeplasma laidlawii PG-8; experiment: as above; format: cell-based; conditions: paper disk 8 mm in diameter, 37° C., about 48 hours
Description: as §2

Toxicity tests in mice = format: in vivo; conditions: 100 mg/kg i.p., after 1 month of treatment
S. pyogenes KB 166 = experiment: Minimum inhibitory concentration (MIC), antimicrobial activity; format: cell-based; conditions: Streptococcus pyogenes, KB166, heart infusion agar, pH 7, 37° C., about 20 hours
Description: as §1

[9] = N33, E. coli N-33, heart infusion agar, pH 7, 37° C., about 20 hours, read-out: MIC
[10] = Salmonella typhimurium KB 20, heart infusion agar, pH 7, 37° C., about 20 hours, read-out: MIC
[11] = PCI219, Bacillus subtilis PCI 219, heart infusion agar, pH 7, 37° C., about 20 hours, read-out: MIC
[12] = IIIKB165, Streptococcus pneumoniae III KB 165, heart infusion agar, pH 7, 37° C., about 20 hours, read-out: MIC
[13] = ATCC10031, Klebsiella pneumoniae ATCC 10031, heart infusion agar, pH 7, 37° C., about 20 hours, read-out: MIC
[14] = IFO3001, B. cereus IFO 3001, heart infusion agar, pH 7, 37° C., about 20 hours, read-out: MIC
[15] = S. aureus FDA 209P, heart infusion agar, pH 7, 37° C., about 20 hours, read-out: MIC
[16] = ATCC9341, Micrococcus luteus ATCC 9341, heart infusion agar, pH 7, 37° C., about 20 hours, read-out: MIC
[17] = Staphylococcus aureus ATCC 6538P, heart infusion agar, pH 7, 37° C., about 20 hours, read-out: MIC
[18] = methanol, ethanol, acetone, ethyl acetate, chloroform, benzene

CCC1OC(=O)CC(OC(C)=O)C(C)C(OC2OC(C)C(OC3CC(C)(O)C(O)C(C)O3)C(N(C)C)C2O)C(CC=O)CC(C)C(OC2CCC(N(C)C)C(C)O2)C=CC(C)=CC1C (stereo not shown) [PTL-448-A]
MIC (E. coli N-33; [9]): 1.56 µg/mL (≈ 1.71 µM) | MIC [1, 10]: > 100 µg/mL | MIC [2, 11]: 1.56 µg/mL (≈ 1.71 µM) | MIC [3, 12]: 0.4 µg/mL (≈ 0.439 µM) | MIC [4, 13]: > 100 µg/mL | MIC (B. cereus IFO 3001; [14]): 3.12 µg/mL (≈ 3.42 µM) | MIC (S. aureus FDA 209P; [15]): 6.25 µg/mL (≈ 6.86 µM) | MIC [5, 16]: 0.4 µg/mL (≈ 0.439 µM) | MIC [6, 17]: 6.25 µg/mL (≈ 6.86 µM) | Solubility (Solubility; ether, n-hexane): Slightly soluble | Solubility (Solubility; [18]): Soluble | Solubility (Solubility; water): Insoluble | Diameter of Inhibition Zone [7]: 29.2 mm | Diameter of Inhibition Zone [8]: 32.6 mm | fatalities (Toxicity tests in mice): no fatalities occurred

CCC1OC(=O)CC(O)C(C)C(OC2OC(C)C(OC3CC(C)(O)C(O)C(C)O3)C(N(C)C)C2O)C(CC=O)CC(C)C(OC2CCC(N(C)C)C(C)O2)C=CC(C)=CC1C (stereo not shown) [PTL-448-B]
MIC (E. coli N-33; [9]): 0.78 µg/mL (≈ 0.897 µM) | MIC [1, 10]: > 100 µg/mL | MIC [2, 11]: 0.78 µg/mL (≈ 0.897 µM) | MIC [3, 12]: 0.4 µg/mL (≈ 0.46 µM) | MIC [4, 13]: > 100 µg/mL | MIC (B. cereus IFO 3001; [14]): 1.56 µg/mL (≈ 1.79 µM) | MIC (S. aureus FDA 209P; [15]): 3.12 µg/mL (≈ 3.59 µM) | MIC [5, 16]: 0.4 µg/mL (≈ 0.46 µM) | MIC (S. pyogenes KB 166): 0.4 µg/mL (≈ 0.46 µM) | MIC [6, 17]: 3.12 µg/mL (≈ 3.59 µM) | Solubility (Solubility; ether, n-hexane): Slightly soluble | Solubility (Solubility; [18]): Soluble | Solubility (Solubility; water): Insoluble | Diameter of Inhibition Zone [7]: 30.1 mm | Diameter of Inhibition Zone [8]: 31.4 mm | fatalities (Toxicity tests in mice): no fatalities occurred

CCC1OC(=O)CC(OC(C)=O)C(C)C(OC2OC(C)C(O)C(N(C)C)C2O)C(CC=O)CC(C)C(OC2CCC(N(C)C)C(C)O2)C=CC(C)=CC1C (stereo not shown) [PTL-448-C]
MIC (E. coli N-33; [9]): 0.4 µg/mL (≈ 0.522 µM) | MIC [1, 10]: 50 µg/mL (≈ 65.2 µM) | MIC [2, 11]: 1.56 µg/mL (≈ 2.03 µM) | MIC [3, 12]: 0.2 µg/mL (≈ 0.261 µM) | MIC [4, 13]: 50 µg/mL (≈ 65.2 µM) | MIC (B. cereus IFO 3001; [14]): 1.56 µg/mL (≈ 2.03 µM) | MIC (S. aureus FDA 209P; [15]): 1.56 µg/mL (≈ 2.03 µM) | MIC [5, 16]: 0.4 µg/mL (≈ 0.522 µM) | MIC (S. pyogenes KB 166): 0.4 µg/mL (≈ 0.522 µM) | MIC [6, 17]: 1.56 µg/mL (≈ 2.03 µM) | Solubility (Solubility; ether, n-hexane): Slightly soluble | Solubility (Solubility; [18]): Soluble | Solubility (Solubility; water): Insoluble | Diameter of Inhibition Zone [8]: 33.1 mm | fatalities (Toxicity tests in mice): no fatalities occurred

CCC1OC(=O)CC(O)C(C)C(OC2OC(C)C(O)C(N(C)C)C2O)C(CC=O)CC(C)C(OC2CCC(N(C)C)C(C)O2)C=CC(C)=CC1C (stereo not shown) [PTL-448-D]
MIC (E. coli N-33; [9]): 0.2 µg/mL (≈ 0.276 µM) | MIC [1, 10]: 25 µg/mL (≈ 34.5 µM) | MIC [2, 11]: 1.56 µg/mL (≈ 2.15 µM) | MIC [3, 12]: 0.2 µg/mL (≈ 0.276 µM) | MIC [4, 13]: 25 µg/mL (≈ 34.5 µM) | MIC (B. cereus IFO 3001; [14]): 1.56 µg/mL (≈ 2.15 µM) | MIC (S. aureus FDA 209P; [15]): 1.56 µg/mL (≈ 2.15 µM) | MIC [5, 16]: 0.2 µg/mL (≈ 0.276 µM) | MIC (S. pyogenes KB 166): 0.4 µg/mL (≈ 0.552 µM) | MIC [6, 17]: 1.56 µg/mL (≈ 2.15 µM) | Solubility (Solubility; ether, n-hexane): Slightly soluble | Solubility (Solubility; [18]): Soluble | Solubility (Solubility; water): Insoluble | Diameter of Inhibition Zone [8]: 32.0 mm | fatalities (Toxicity tests in mice): no fatalities occurred

COC1C(O)CC(=O)OC(C)CC=CC=CC(OC2CCC(N(C)C)C(C)O2)C(C)CC(CC=O)C1OC1OC(C)C(OC2CC(C)(O)C(O)C(C)O2)C(N(C)C)C1O (stereo not shown) [SPM I, Spiramycin I, reference compound]
MIC (E. coli N-33; N33, 20 h, pH 7): 1.56 µg/mL (≈ 1.85 µM) | MIC ([1]; TYPHIMURIUM, 20 h, pH 7): > 100 µg/mL | MIC ([2]; Bacillus subtilis, PCI219, 20 h, pH 7): 1.56 µg/mL (≈ 1.85 µM) | MIC ([3]; Streptococcus pneumoniae, IIIKB165, 20 h, pH 7): 0.4 µg/mL (≈ 0.474 µM) | MIC ([4]; Klebsiella pneumoniae, ATCC10031, 20 h, pH 7): > 100 µg/mL | MIC (B. cereus IFO 3001; IFO3001, 20 h, pH 7): 3.12 µg/mL (≈ 3.7 µM) | MIC (S. aureus FDA 209P; 20 h, pH 7): 6.25 µg/mL (≈ 7.41 µM) | MIC ([5]; Micrococcus luteus, ATCC9341, 20 h, pH 7): 0.4 µg/mL (≈ 0.474 µM) | MIC ([6]; Staphylococcus aureus, 20 h, pH 7): 6.25 µg/mL (≈ 7.41 µM)

CCC(=O)OC1CC(=O)OC(C)CC=CC=CC(OC2CCC(N(C)C)C(C)O2)C(C)CC(CC=O)C(OC2OC(C)C(OC3CC(C)(O)C(O)C(C)O3)C(N(C)C)C2O)C1OC (stereo not shown) [SPM III, Spiramycin III, reference compound]
MIC (E. coli N-33; [9]): 1.56 µg/mL (≈ 1.74 µM) | MIC [1, 10]: > 100 µg/mL | MIC [2, 11]: 1.56 µg/mL (≈ 1.74 µM) | MIC [3, 12]: 0.4 µg/mL (≈ 0.445 µM) | MIC [4, 13]: > 100 µg/mL | MIC (B. cereus IFO 3001; [14]): 3.12 µg/mL (≈ 3.47 µM) | MIC (S. aureus FDA 209P; [15]): 12.5 µg/mL (≈ 13.9 µM) | MIC [5, 16]: 0.4 µg/mL (≈ 0.445 µM) | MIC [6, 17]: 12.5 µg/mL (≈ 13.9 µM)
